Measurements published in paper PMC3288053 (PLoS ONE, 2012).

Assays:
CHO-K1/GLUT4 cells = assay: Quantification of GLUT4 translocation ratio (IN Cell Analyzer 1000); format: cell-based
Description: CHO-K1 cells are transfected with pEGFPN1-GLUT4-myc plasmid using Lipofectamine 2000, and subsequently screened with G418 (800 µg/ml). The CHO-K1/GLUT4 stable cell line is obtained by picking up clones.
CHO-K1/GLUT4 cells are seeded into 96-well plate. After cells reached 100% confluence, F12 medium is changed to 3T3-L1 medium and incubated for 2 days. 8-hour serum starvation later, cells are stimulated with insulin for 5 minutes, fixed with 3.7% formaldehyde for 15 minutes, and labeled with anti-myc monoclonal antibody and secondary antibody (Alexa Fluor 647 conjuncted anti-mouse antibody). Fluorescence pictures were obtained by IN Cell Analyzer 1000 Instrument (GE Healthcare) with the same exposure time. The basic unit comprises several core components including a Nikon microscope and a high-resolution CCD camera. Membrane-located GLUT4 is represented by the intensity of red fluorescence (Alex fluor 647) and normalized by the intensity of green fluorescence (GLUT4-EGFP), which is assigned to the total GLUT4 [46].

[1] = target: T1, PPARγ-LBD/SRC1_613–773 interaction (Homo sapiens, UniProt P37231); assay: SPR SRC1 recruitment assay; format: binding; settings: 1 µM PPARγ-LBD incubated with compound 1 hour
T1 construct: pET15b-PPARγ-LBD202–477; His-tag (N); made in house; host or cells: E. coli BL21 (DE3)
Description: (§1) Binding affinities of Rut towards proteins are analyzed using SPR technology based Biacore 3000 instrument (GE Healthcare). In the assay, proteins are immobilized to CM5 chips using a standard amine-coupling procedure (Biacore manual). The proteins to be covalently bound to the chips are diluted in 10 mM sodium acetate buffer (pH4.5) to a final concentration of 0.10 mg/ml. Before experiments, baseline is equilibrated with a continuous flow of running buffer (10 mM HEPES, 150 mM NaCl, 3 mM EDTA, and 0.005% (v/v) surfactant P20, pH7.4) for 2 hours. Subsequently, Rut with a gradient of concentrations is injected to the channels at a flow rate of 20 µL/min for 60 seconds, followed by disassociation for 120 seconds. The 1∶1 Langmuir binding fitting model in BIAevaluation software version 3.1 (Biacore) is used to determine the equilibrium dissociation constants (K Ds) of compounds. […] Different concentrations of PPARγ-LBD or RXRα-LBD are injected to the channel at a flow rate of 20 µL/min for 60 s, followed by disassociation for 120 s.

[2] = target: T2, RXRα-LBD/SRC1_613–773 interaction (Homo sapiens, UniProt P19793); assay: SPR SRC1 recruitment assay; format: binding; settings: 1 µM RXRα-LBD incubated with compound 1 hour
T2 construct: His-tag (N); made in house; host or cells: E. coli BL21 (DE3)
Description: as §1

LXRα:RXRα = target: T3, LXRα:RXRα (Homo sapiens, UniProt P19793+Q13133); assay: Transient transfection luciferase assay in HEK293 cells (LXRE); format: cell-based; settings: HEK293, 24 h
T3 construct: expressed in transfected cells; host or cells: HEK293
Description: HEK293 cells are transiently transfected by Lipo2000 respectively with RXRα, PPARγ, FXR, and LXRα plasmids plus pGL3-RXRE luciferase vector and renilla luciferase vector for 5 hours. Cells are then incubated with indicated concentrations of compounds for another 24 h and finally lysed. Luciferase activities are measured using Dual Luciferase Assay System kit. Rut dose-dependently activates (a) RXRα:RXRα and (b) PPARγ:RXRα activities. Rut has no effects on (c) FXR: RXRα and (d) LXRα:RXRα activities. Data are presented as means ± s.e.m (*P<0.05, **P<0.01) from three independent experiments.
HEK293 cells are transfected with luciferase reporter plus Renilla luciferase vector and other plasmids if needed for 5 hours, and cells are then incubated with indicated concentrations of compounds for another 24 h. Finally cells are lysed and luciferase activities are measured using Dual Luciferase Assay System kit. The results are presented as the fold activation relative to untreated cells after normalization with Renilla luciferase values. Each experiment is repeated at least twice, with each sample analyzed in triplicates.

C57/BL6 DIO male mice = assay: Diet-induced obese (DIO) mice model: fasting plasma glucose, OGTT, ITT, tolerability; format: in vivo
Description: All animals receive humane care, and the experimental procedures are performed according to the institutional ethical guidelines on animal care. C57/BL6 male mice are obtained from Shanghai SLAC Laboratory Animal Co. Ltd, and maintained under the temperature controlled at 25°C with a 12 h light-dark cycle. Eight-week-old male mice are fed regular chow or high fat diet (HFD, D12492i, from Research Diets Inc.) for 12 weeks. The DIO mice and normal lean mice are grouped randomly, and each group contains 7 mice. […] Individual body weight and fasting plasma glucose are measured weekly. Averaged daily food intake is measured twice a week. At the termination of the study, mice are dissected, and the weight of tissues (liver, kidney, spleen, heart, perirenal fat, and epididymis fat) is determined.
Male mice treated with compounds for 8 weeks are used for oral glucose tolerance test. After 6 h fasting, plasma glucose levels are measured and glucose (2 g/kg) is loaded. Blood samples are taken from the tail vein at different time points (0, 30, 90, and 120 min). In insulin tolerance tests, after 6 h fasting, plasma glucose levels are measured and insulin (1 U/kg) is administered by IP injection. Blood samples are taken at indicated time points (0, 15, 30, 45, 60, 90, and 120 min). Blood glucose levels are measured by ACCU-CHEK Active blood sugar testmeter (Roche). Statistical evaluation is performed via two-way ANOVA. Significant difference at P<0.05: *, P<0.01: **.

T1 sequence (P37231 230-505): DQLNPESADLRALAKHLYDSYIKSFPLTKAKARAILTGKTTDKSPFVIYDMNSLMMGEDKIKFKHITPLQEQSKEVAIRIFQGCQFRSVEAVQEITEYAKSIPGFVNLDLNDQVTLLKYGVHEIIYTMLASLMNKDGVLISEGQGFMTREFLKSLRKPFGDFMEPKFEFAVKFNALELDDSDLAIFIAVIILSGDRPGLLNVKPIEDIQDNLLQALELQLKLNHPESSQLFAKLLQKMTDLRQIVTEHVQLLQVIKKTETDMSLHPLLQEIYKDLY
T1 sequence (Q15788 613-773 partner limits assumed): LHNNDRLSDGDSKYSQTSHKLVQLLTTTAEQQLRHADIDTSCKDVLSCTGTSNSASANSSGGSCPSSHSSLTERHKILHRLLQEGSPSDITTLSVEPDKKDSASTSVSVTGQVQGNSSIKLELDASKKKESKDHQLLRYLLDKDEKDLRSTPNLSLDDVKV
T3 sequence (Q13133 whole entry): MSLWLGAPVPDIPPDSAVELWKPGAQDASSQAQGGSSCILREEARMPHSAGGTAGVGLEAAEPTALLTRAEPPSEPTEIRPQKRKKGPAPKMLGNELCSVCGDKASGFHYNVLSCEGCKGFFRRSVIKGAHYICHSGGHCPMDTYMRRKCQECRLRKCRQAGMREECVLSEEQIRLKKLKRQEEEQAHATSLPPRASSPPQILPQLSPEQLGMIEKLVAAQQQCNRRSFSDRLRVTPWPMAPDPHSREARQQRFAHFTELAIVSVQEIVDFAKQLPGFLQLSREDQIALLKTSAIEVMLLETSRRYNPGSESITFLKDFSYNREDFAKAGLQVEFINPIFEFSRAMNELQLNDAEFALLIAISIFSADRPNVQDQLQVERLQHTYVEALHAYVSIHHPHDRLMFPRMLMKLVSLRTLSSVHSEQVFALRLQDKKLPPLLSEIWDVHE
T3 sequence (P19793 whole entry): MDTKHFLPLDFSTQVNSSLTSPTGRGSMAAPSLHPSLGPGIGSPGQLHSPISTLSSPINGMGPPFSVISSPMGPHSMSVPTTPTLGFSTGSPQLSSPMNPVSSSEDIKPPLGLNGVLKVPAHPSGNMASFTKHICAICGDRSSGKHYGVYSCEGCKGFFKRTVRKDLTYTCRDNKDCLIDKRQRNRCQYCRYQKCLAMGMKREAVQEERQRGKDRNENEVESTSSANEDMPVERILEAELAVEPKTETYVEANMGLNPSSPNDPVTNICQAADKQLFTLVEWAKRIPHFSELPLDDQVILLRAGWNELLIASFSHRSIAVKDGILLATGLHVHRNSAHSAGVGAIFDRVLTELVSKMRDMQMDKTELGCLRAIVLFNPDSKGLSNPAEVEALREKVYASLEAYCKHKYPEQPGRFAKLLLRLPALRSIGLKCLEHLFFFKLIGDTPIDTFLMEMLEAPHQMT
T2 sequence (P19793 227-458 limits assumed): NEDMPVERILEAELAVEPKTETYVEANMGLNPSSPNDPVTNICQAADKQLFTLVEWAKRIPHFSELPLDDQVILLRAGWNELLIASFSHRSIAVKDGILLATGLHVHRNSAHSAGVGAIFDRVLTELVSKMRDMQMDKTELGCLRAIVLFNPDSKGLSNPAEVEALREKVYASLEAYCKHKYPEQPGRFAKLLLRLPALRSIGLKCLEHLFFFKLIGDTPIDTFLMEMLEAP
T2 sequence (Q15788 613-773 partner limits assumed): as the sequence (Q15788 613-773 partner limits assumed) above

In the case of `C=CC(C)(C)c1cc2cc3c(cc2oc1=O)O[C@H](C(C)(C)OC(C)=O)C3` [(+)-Rutamarin], the EC50 (CHO-K1/GLUT4 cells; Cricetulus griseus, CHO-K1, cells pre-treated with Rut 8 hours, then insulin (170 nM) 5 minutes, read-out: EC50, enhancement of insulin-induced GLUT4 translocation) is reported as 7 µM, the “basal GLUT4 translocation without insulin induction” value (CHO-K1/GLUT4 cells; Rut 20 µM, 8 h) is reported as “induces basal GLUT4 translocation” and the “effect on pervanadate-stimulated GLUT4 translocation” value (CHO-K1/GLUT4 cells; Rut 20 µM, pervanadate 100 µM) is reported as “cannot enhance”. For the same compound, the “enhancement on insulin-induced GLUT4 translocation compared with compound-2 and pervanadate” value (CHO-K1/GLUT4 cells; insulin 170 nM, C2 10 µM, pervanadate 100 µM, Rut 5, 10, 20 µM) was “even stronger”, the “effect on interaction between PPARγ-LBD and SRC1” value [1] was “cannot enhance” and the “effect on interaction between RXRα-LBD and SRC1” value [2] was “efficiently enhances”. The “activity of LXR-response element (LXRE)” value (LXRα:RXRα) was “without influencing”, the “fasting plasma glucose level” value (C57/BL6 DIO male mice; DIO mice, Rut 2 mg/kg IP, 2 weeks) was “efficiently improve” and the “fasting plasma glucose vs control obese group” value (C57/BL6 DIO male mice; DIO mice, Rut 10 mg/kg IP daily, 8 weeks) was “significantly lower”. For the same compound, the “insulin tolerance test, glucose elimination vs vehicle” value (C57/BL6 DIO male mice; DIO mice, Rut 10 mg/kg, insulin 1 U/kg IP) was “eliminate glucose at a faster rate”, the “plasma glucose after glucose challenge (glucose tolerance test) vs vehicle” value (C57/BL6 DIO male mice; DIO mice, Rut 10 mg/kg, oral glucose 2 g/kg) was “much lower” and the “food consumption vs vehicle-treated mice” value (C57/BL6 DIO male mice; Rut 10 mg/kg IP) was “not significantly different”. The body weights (C57/BL6 DIO male mice; Rut 10 mg/kg IP, same course in vehicle-treated mice) was “slightly decrease in the first four weeks”, the “insulin tolerance test vs vehicle” value (C57/BL6 DIO male mice; lean mice, Rut 10 mg/kg) was “no obvious difference” and the “fasting plasma glucose vs vehicle” value (C57/BL6 DIO male mice; lean mice, Rut 10 mg/kg IP daily, 8 weeks) was “no obvious difference”.
